Measured values as given in patent US20200157048A1, “(2E,4E)-5-PHENYL-PENTA-2,4-DIEN-1-ONE DERIVATIVE” (BIOWAY., INC, priority 2018, published 2020).

Tests used:
Type in all cases: cell-based, Human
Conditions in all cases: steatosis-induced (OA/PA) Huh-7 cells; 10 μM; 24 hours
Sirt1 mRNA = assay: qRT-PCR Sirt1 mRNA level in steatosis-induced Huh-7 cells
Protocol: (§1) In Experimental Example 5, the Huh-7 cells were plated in 6 wells at 4×10^5 cells/mL and incubated under an atmosphere containing 5% CO2 at 37° C.
(§2) One day later, the cell density approached about 80 to 90%. The medium was changed to an FBS-free RPMI1640 medium, and incubated under an atmosphere containing 5% CO2 at 37° C. for 24 hours.
(§3) Huh-7 cells of each well, excluding control cells, were pretreated with an OA/PA mixture for one hour to induce steatosis. The control cells were pretreated with 1% FA-free BSA.
(§4) Each well was treated with 10 μM of a test compound, and then the cells were incubated for 24 hours. The control cells and OA/PA-treated cells were treated with DMSO. Cells of a positive control were treated with 10 μM of resveratrol, 10 μM of piperine, and 10 μM of YU2014. The medium was entirely aspirated, and the cells were washed with PBS (phosphate buffered saline, Corning, Manassas, Va., USA) two times.
(§5) Total RNA was extracted using a RNeasy RNA isolation kit (Qiagen, Hilden, Germany).
(§6) 10 μL of β-mercaptoethanol (Sigma-Aldrich) per 1 mL of lysis buffer was added, thereby preparing an RNA lysis buffer. […]
(§7) An RNA concentration was measured at O.D. 260 nm using a nanophotometer N60 (Implen, Munich, Germany). The concentration and purity of RNA were measured at O.D. 260/280 nm and calculated as a ratio. […]
(§8) Quantitative analyses for the genes in Table 3 were performed.

Ck2α mRNA = assay: qRT-PCR Ck2α mRNA level in steatosis-induced Huh-7 cells
Protocol: as §1, §2, §3, §4, §5, §6, §7, §8

Pparα mRNA = assay: qRT-PCR Pparα mRNA level in steatosis-induced Huh-7 cells
Protocol: as §1, §2, §3, §4, §5, §6, §7, §8

Fgf21 mRNA = assay: qRT-PCR Fgf21 mRNA level in steatosis-induced Huh-7 cells
Protocol: as §1, §2, §3, §4, §5, §6, §7, §8

| SMILES | Sirt1 mRNA level (FIG. 16) (Sirt1 mRNA) | Ck2α mRNA level (FIG. 19) (Ck2α mRNA) | Pparα mRNA level (FIG. 10) (Pparα mRNA) | Fgf21 mRNA level (FIG. 12) (Fgf21 mRNA) |
| --- | --- | --- | --- | --- |
| CCC(=O)N1CCN(C(=O)/C=C/C=C/c2ccc(OC)cc2)CC1 [R-18, (2E,4E)-5-(4-methoxyphenyl)-1-(4-propionylpiperazine-1-yl)penta-2,4-dien-1-one] | greatly increased | greatly reduced |  |  |
| CCOC(=O)N1CCN(C(=O)/C=C/C=C/c2ccc(OC)cc2)CC1 [R-23, Ethyl 4-((2E,4E)-5-(4-methoxyphenyl)penta-2,4-dienoyl)piperazine-1-carboxylate] | greatly increased |  |  |  |
| CCOC(=O)N1CCN(C(=O)/C=C/C=C/c2ccc(SC)cc2)CC1 [R-24, Ethyl 4-((2E,4E)-5-(4-(methylthio)phenyl)penta-2,4-dienoyl)piperazine-1-carboxylate] |  | greatly reduced |  |  |
| O=C(/C=C/C=C/c1ccc2c(c1)OCO2)N1CCCCC1 [piperine, Piperine] |  |  | no effect | no effect |
